Assay results taken from patent US20040023892A1, “Pharmaceutical composition based on a non-steroid anti-inflammatory agent” (priority 2002, published 2004).
Marks after values point to notes of the source that are not given here.

How the values were obtained:
[1] = test system: inflammatory swelling of paw of mice after introduction of carragenin; experiment: Inflammatory swelling of paw of mice after introduction of carragenin; format: in vivo; conditions: dose mg/kg; for swelling of paw of mice after introduction of carragenine: Table 4, Control: NAIA alone; for Increase of Mass of Limb / Suppression of Swelling, % to Control: preparation alone, into stomach once a day 5 days, 3.5 hours after carragenin; for swelling of paw of mice after introduction of carragenin: the values are: increase of paw mass
Protocol: Tests were performed on breedless white mice-males with mass 22-24 g. The investigated preparations were introduced to animals through a probe into stomach once a day during five days in form of suspension on 1% starch mucous or aqueous solution.
In one hour after the last introduction of preparations, mice were injected with 0.05 ml of 1% of solution of carragenin in isotonic solution of sodium chloride, under aneurism of right rear paw. After 3.5 hours, on a peak of inflammation, they were killed by dislocation of a neck area of spine. Swollen and healthy paws were compared, and a degree of suppression of swelling was determined in test groups when compared with a control group in accordance with the formula:
Increase of mass of paw in control-increase of mass of paw in test ______ 100 increase of mass of paw in control.
Tests were performed on breedless white mice-males with mass 22-26 g.

breedless mice-male = experiment: Acute toxicity of ASA (LD50) with carbohydrate or sorbent; format: in vivo; conditions: relative to LD50 of ASA alone
Protocol: Tests were conducted on breedless mice-male with mass 22-26 g. Acute toxicity of ASA was evaluated in accordance with the value LD50 (dose from which 50% of animals perish) of composition containing ACA plus carbohydrate or sorbent with ratio 4:1 when compared with LD50 ASA. Preparations were introduced one time intostomach in form of aqueous suspension with doses 350-3000 mg/kg to groups of six mice. Observations were conducted during 14 days. As a substance which has absorbing properties there were used activated carbon, white clay (caolin), aluminum hydroxide, magnium tricilicate, hydroxylapatite, microcrystaalline cellulose (MCC). As carbohydrates there were used monosaccarides-glucose and fructose, disaccaride-saccarose and lactose, and polysaccaride-potato starch. Results of experiments were processed in accordance with the method of Lichfield-Wilkoxon (Belensky, M. L. “Elements of quantitative evaluation of pharmacological effect,” second edition, redone and added, L, Medgiz, 1963, 152 p).
LD50 composition were counted on ASA (tables 7, 8).

ambulatory patients [2] = experiment: Clinical investigation of side effects of NAIA combinations with carbohydrates or sorbents
ambulatory patients [3] = conditions: human, in vivo
[4] = 0.25 g with succinate of ammonium 0.1 g and activated carbon (0.35 g), two times a day 8 weeks

Compound | swelling of paw of mice after introduction of carragenine ([1]; N = 10) | Increase of Mass of Limb ([1]; n = 10) | Suppression of Swelling, % to Control ([1]; n = 10) | further results
CC(=O)Oc1ccccc1C(=O)O [ASA, acetyl salicylic acid] | 41.3* | – | – | Increase of Toxicity In (breedless mice-male): 0; better taking of mixture ASA and ammonium succinate (ambulatory patients [2]; [4]): Four from five; dyspeptic phenomena (ambulatory patients [2]; [4]): all 5 exhibited dyspeptic phenomena to a lesser degree
CCCCC1C(=O)N(c2ccccc2)N(c2ccccc2)C1=O [BN, butadion] | 32.4* | – | – | –
O=C(O)/C=C/C(=O)O [FUM, fumaric] | – | 59.3 ± 5.5 mg | −1.3 % to Control | –
NCC(=O)O [GLy, glycin] | – | 63.0 ± 5.5 mg | +4.8 % to Control | –
COc1ccc2c(c1)c(CC(=O)O)c(C)n2C(=O)c1ccc(Cl)cc1 [IM, indometatsin] | 19.0* | – | – | patients needing antyhistamine substances for reduction of allergenic phenomena (ambulatory patients [2]; 0.05 g with 0.25 g karsil, group which did not receive sorbent): one more patient needed antyhistamine substances; patients forced to stop taking preparation because of strong headaches in epigastric, vomiting (ambulatory patients [2]; 0.05 g with 0.25 g karsil, group which did not receive sorbent, after the third week): 1 patient; side effects of indometnacyne, in particular dispeptic phenomena, dizziness, headaches (ambulatory patients [2]; 0.05 g with 0.25 g karsil, together with microcrystalline cellulose 1:2, 5 weeks, versus without sorbent): to a lesser degree
O=c1c(O)c(-c2ccc(O)c(O)c2)oc2cc(O)cc(O)c12 [KV, kvertsetin] | – | 58.7 ± 3.6 mg | −2.3 % to Control | –
O=C(O)CCCCC1CCSS1 (stereo not drawn) [Lipoic acid LA, lipoic acid] | – | 62.3 mg | +3.7 % to Control | –
O=C(O)c1cccnc1Nc1cccc(C(F)(F)F)c1 [NA, niflumic acid] | 31.1* | – | – | –
COc1ccc2cc([C@H](C)C(=O)O)ccc2c1 [NP, naproxen] | 28.9* | – | – | –
CN1C(C(=O)Nc2ccccn2)=C(O)c2ccccc2S1(=O)=O [PK, piroxikam] | 28.8* | 28.8 ± 4.9 mg | −52.0 % to Control | swelling of paw of mice after introduction of carragenin ([1]; Table 2, column Control: NAIA alone, N = 10): 28.8 mg; swelling of paw of mice after introduction of carragenin ([1]; Table 3, column Control: NAIA alone, n = 10): 28.8 mg; swelling of paw of mice after introduction of carragenin ([1]; Table 5, column Control: NAIA alone, N = 10): 28.8 mg
N.N.O=C(O)CCC(=O)O [S-NH4, succinate of ammonium] | – | 63.5 ± 6.1 mg | +5.7 % to Control | –
N[C@@H](CS)C(=O)O [TIS, tsistein] | – | 61.5 ± 6.4 mg | +2.3 % to Control | –
O=C(O)Cc1ccccc1Nc1c(Cl)cccc1Cl [VL, voltaren] | 24.3* | – | – | –
O=C([O-])Cc1ccccc1Nc1c(Cl)cccc1Cl.[Na+] [ortofen] | – | – | – | dispeptic phenomenon, headaches, dizziness (ambulatory patients [3]): less exhibited; taking of medication (ambulatory patients [3]): taking medication better
Vitamin B6 [Vit B6] | – | 60.5 mg | +0.7 % to Control | –
Vitamin E [Vit E] | – | 58.7 mg | −2.3 % to Control | –
